In patent publication US12622915B2, “Methods of treating PDE IV-mediated diseases or conditions” (Vanda Pharmaceuticals Inc., priority 2020, dated 2026):

Target: T1, Phosphodiesterase PDE4D2 (Homo sapiens, UniProt Q08499)
T1 construct: host or cells: insect Sf9 cells
Assay: Phosphodiesterase PDE4D2 enzyme assay
Assay type: biochemical
Experimental: Roliprami is used as a reference standard.
PDE4 assays are performed using methods adapted from the literature. See Houslay MD (2005) The long and short of vascular smooth muscle phosphodiesterase-4 as a putative therapeutic target. Mol Pharmacol. 68(3):563-567; MacKenzie S J and Houslay M D (2000) Action of rolipram on specific PDE4 cAMP phosphodiesterase isoforms and on the phosphorylation of cAMP-response element-binding protein (CREB) and p38 mitogen-activated protein (MAP) kinase in U937 monocytic cells. Biochem J. 347(Pt 2): 571-578.
Phosphodiesterase PDE4D2: • Source: Human recombinant insect Sf9 cells • Substrate: 0.10 μM FAM-cAMP • Vehicle: 1.00% DMSO • Significance Crit.: ≥50% of max stimulation or inhibition • Incubation Buffer: 10 mM Tris-HCl, pH 7.2, 10 mM MgCl2, 0.05% NaN3, 0.1% phosphate-free BSA • Quantitation Method: Quantitation of Fluorescein-AMP-IMAP • Pre-Incub. Time/Temp: 15 minutes @25° C. • Incubation Time/Temp: 15 minutes @25° C.
IC50 values are determined by a non-linear, least squares regression analysis using MathIQ™ (ID Business Solutions Ltd., UK). Where inhibition constants (Ki) are presented, the Ki values are calculated using the equation of Cheng and Prusoff (Cheng, Y., Prusoff, W.H., Biochem. Pharmacol. 22:3099-3108, 1973) using the observed IC50 of the tested compound, the concentration of radioligand employed in the assay, and the historical values for the KD of the ligand (obtained experimentally at Eurofins Panlabs, Inc.). Where presented, the Hill coefficient (nH), defining the slope of the competitive binding curve, is calculated using MathIQ™. […] Where IC50, Ki, and/or nH data are presented without Standard Error of the Mean (SEM), data are insufficient to be quantitative, and the values presented (Ki, IC50, nH) are interpreted with caution.

T1 sequence (Q08499 303-809 limits assumed): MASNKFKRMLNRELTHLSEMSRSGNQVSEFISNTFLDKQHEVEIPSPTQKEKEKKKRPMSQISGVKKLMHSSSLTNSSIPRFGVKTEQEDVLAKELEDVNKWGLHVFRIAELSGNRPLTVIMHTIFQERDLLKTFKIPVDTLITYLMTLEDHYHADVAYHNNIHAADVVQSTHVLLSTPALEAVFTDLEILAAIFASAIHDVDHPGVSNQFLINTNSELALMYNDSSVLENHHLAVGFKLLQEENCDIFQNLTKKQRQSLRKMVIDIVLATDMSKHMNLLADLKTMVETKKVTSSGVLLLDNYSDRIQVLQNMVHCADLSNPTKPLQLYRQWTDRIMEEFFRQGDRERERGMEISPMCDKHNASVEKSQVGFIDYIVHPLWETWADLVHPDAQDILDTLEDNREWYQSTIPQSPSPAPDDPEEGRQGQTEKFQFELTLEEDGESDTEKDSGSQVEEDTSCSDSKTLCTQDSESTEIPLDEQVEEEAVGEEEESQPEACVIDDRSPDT

inhibition at 0.03 µM (0.03 μM, N=2, Example 5): 70% | inhibition at 0.1 µM (0.1 μM, N=2, Example 5): 83% | inhibition at 0.3 µM (0.3 μM, N=2, Example 5): 91% | inhibition at 1 µM (1 μM, N=2, Example 5): 96% | inhibition at 3 µM (3 μM, N=2, Example 5): 97% | inhibition at 10 µM (10 μM (first line, r2), N=2, Example 5): 99% | IC50 (Example 5): 6.19 nM
Structure (SMILES): CNc1nc(Nc2ccccc2)nc(OCC(F)(F)C(F)F)n1 [compound of Formula (I), N^2-methyl-N^4-phenyl-6-(2,2,3,3-tetrafluoropropoxy)-1,3,5-triazine-2,4-diamine]
